Reference: patent US20240131032A1, “AN ACTIVITY-GUIDED MAP OF ELECTROPHILE-CYSTEINE INTERACTIONS IN PRIMARY HUMAN IMMUNE CELLS” (The Scripps Research Institute, priority 2019, published 2024)

System: NuRD complex
Assay: Expression-based proteomics (TMT-exp) of compound-treated T cells, NuRD complex
Assay type: cell-based, human
Settings: BPK-25 10 μM, 24 h; for decrease in GATAD2B, MBD2, MBD3, and MTA2 (NuRD complex proteins): BPK-21 20 μM, EV-3 10 μM, DMF 50 μM
Method: FIG. 7B is a scatter plot representation of protein abundance changes caused by BPK-25 (10 μM, 24 h) in two independent replicate experiments, with decreases in NuRD complex components highlighted in red. FIG. 7C is a heatmap of top proteins with decreased abundance in BPK-25-treated T cells showing that the subset of these proteins in the NuRD complex (asterisks) were largely unaltered by other active compounds and blocked in their degradation by co-treatment with the proteasome inhibitor MG132. […] FIG. 7E is a bar graph […] showing time-dependent reductions in NuRD complex members in human T cells treated with BPK-25 (10 μM). Left, representative western blots. Right, quantification of changes in protein. […] FIG. 7G is a heat map showing the changes in cysteine reactivity for NuRD complex members in human T cells treated with BPK-25 and other active compounds.
Freshly isolated T cells (1.6×10^7 cells, 2×10^6 cells/mL in RPMI media) were treated with compound or DMSO for 24 h, pelleted (600 g, 5 min), and washed with PBS (1×10 mL). The cells were then transferred to an Eppendorf tube in additional PBS (1 mL), pelleted (600 g, 5 min), flash frozen, and kept at −80° C. until further analysis. On the first day of the whole proteome TMT protocol, the cells were thawed on ice and lysed in lysis buffer (150 μL, 1 tablet of Roche complete, mini, EDTA-free Protease Inhibitor Cocktail dissolved in 10 mL of PBS) using a probe sonicator (2×8 pulses). Protein concentration was adjusted to 2.0 mg/mL and the samples (100 μL) were transferred to new Eppendorf tubes (1.5 mL) containing urea (48 mg/tube, final urea concentration: 8 M). DTT (5 μL, 200 mM fresh stock in H2O, final DTT concentration: 10 mM) was then added to the tubes and the samples were incubated at 65° C. for 15 min. Following this incubation, iodoacetamide (5 μL, 400 mM fresh stock in H2O, final IA concentration: 20 mM) was added and the samples were incubated in the dark at 37° C. with shaking for 30 min. Ice-cold MeOH (600 μL), CHCl3 (200 μL), and H2O (500 μL) were then added, the mixture was vortexed and centrifuged (10,000 g, 10 min, 4° C.) to afford a protein disc at the interface of CHCl3 and aqueous layers. The top layer was aspirated without perturbing the disk, additional MeOH (600 μL) was added and the proteins were pelleted (10,000 g, 10 min, 4° C.) and used in the next step or stored at −80° C. overnight.
The resulting protein pellets were resuspended in EPPS buffer (160 μL, 200 mM, pH 8) using a probe sonicator (2×6 pulses). […]
The sample became clear after the overnight digestion. At this point, peptide concentration was determined using microBCA assay (Thermo Scientific) according to manufacturer's instructions. […]

Row | SMILES | reduced abundance of additional NuRD complex members | decrease in GATAD2B, MBD2, MBD3, and MTA2 (NuRD complex proteins)
1 | C=CC(=O)N(Cc1cccc(Cl)n1)c1ccc(C(=O)Nc2ccccc2)nc1 [BPK-25] | 25-50% | > 50%
2 | COC(=O)/C=C/C(=O)OC [DMF, reference compound] | – | not leading to NuRD complex degradation
